In patent US12208095B2, “Methods of treating breast cancer with tetrahydronaphthalene derivatives as estrogen receptor degraders” (Arvinas Operations, Inc., priority 2019, dated 2025):

Tested on: MCF7 xenograft
Experiment: tumor growth inhibition in orthotopic MCF7/estradiol xenograft model
Format: in vivo, NOD/SCID mice
Description: Species: NOD/SCID female mice (Charles River, 6-7 weeks old upon arrival).
Animal handling: Axial mammary fat pad implantation of 5×10^6 MCF7 cells/200 per mouse (17β-estradiol 0.36 mg 90-day pellet implanted day before).
Tumor volumes were evaluated twice per week for twenty-eight days.
Sampling: Tumors were measured twice weekly. Terminal sacrifice was ˜18 hr after last dose; tumors were harvested, divided, and flash frozen. ERα levels were determined by immunoblotting.
Tumor volume calculation: Tumor Volume=(width×width×length)/2, where all measurements are in mm and the tumor volume is in mm^3.
Tumor Growth Inhibition (TGI) calculation: TGI (%)
NOD/SCID female mice (Charles River, 6-7 weeks old upon arrival) received implantation of 5×10^6 MCF7 cells/200 μL per mouse in axial mammary fat pad (17β-estradiol 0.36 mg 90-day pellet implanted day before). Compound administration was initiated once the tumors reached 200 mm^3. Diet was supplemented with peanut butter to help maintain body weights.
The ratio of Tween 80 to PEG-400 is 0.02 g Tween 80 to 1 ml PEG-400. PEG-400 is added to a pre-aliquoted volume of Tween 80. • For fulvestrant: 10% w/v Ethanol, 10% w/v Benzyl Alcohol, and 15% w/v Benzyl Benzoate as co-solvents and made up to 100% w/v with Castor Oil (‘EBB/Castor Oil’) • For palbociclib: 50 mM sodium lactate, pH 4.0 (‘Sodium lactate’)
Sampling: tumors were measured twice weekly. Terminal sacrifice was ˜18 hr after last dose; tumors were harvested, divided, and flash frozen. ERα levels were determined by immunoblotting.

SMILES: O=C1CC[C@H](N2Cc3cc(N4CCN(CC5CCN(c6ccc([C@@H]7c8ccc(O)cc8CC[C@@H]7c7ccccc7)cc6)CC5)CC4)ccc3C2=O)C(=O)N1 [Compound (I-c), (3S)-3-[5-[4-[[1-[4-[(1R, 2S)-6-hydroxy-2-phenyl-tetralin-1-yl]phenyl]-4-piperidyl]methyl]piperazin-1-yl]-1-oxo-isoindolin-2-yl]piperidine-2,6-dione]
- Day 0 Tumor volume (mean ± SD) (3 mg/kg oral QDx28, n = 10): 217 ± 67 mm^3
- Day 0 Tumor volume (mean ± SD) (10 mg/kg oral QDx28, n = 9): 218 ± 65 mm^3
- Day 0 Tumor volume (mean ± SD) (30 mg/kg oral QDx28, n = 10): 217 ± 66 mm^3
- % TGI (MCF7/estradiol, 30 mg/kg, summary over studies): 105-124%
- Day 0 Tumor volume (mean ± SD) (combination study: Compound (I-c) 30 mg/kg oral QDx28, palbociclib 60 mg/kg oral QDx28, fulvestrant 200 mg/kg SC, n = 10): 199 ± 55 mm^3
